This passage reports Kd results from doi:10.1101/2021.07.22.453354v1 (biorxiv, 2021).

This assay deals with ΔNFun30 (printed ⊗NFun30), Fun30 from C. albicans, orf19.6291 (Candida albicans, UniProt A0A1D8PTJ0). The assay can be described thus: biochemical.

Take `Nc1ncnc2c1ncn2[C@@H]1O[C@H](COP(=O)(O)OP(=O)(O)OP(=O)(O)O)[C@@H](O)[C@H]1O` [ATP]: binding was characterised by a dissociation constant (Kd) of 1320 ± 30 nM.
